ChEMBL document CHEMBL5584354, “Impact of Conjugation of the Reactive Oxygen Species (ROS)-Generating Catalytic Moiety with Membrane-Active Antimicrobial Peptoids: Promoting Multitarget Mechanism and Enhancing Selectivity” (J Med Chem, 2024)
≈ marks a conversion by molar mass, not a printed value. Non-standard residues stand in square brackets, D forms with d. Residues, ends and D or L forms follow the SMILES beside them. *: point of attachment. X1 = NC(=O)[C@H](Cc1c[nH]cn1)NC(=O)CNC(=O)[C@@H](N)CN*; Gly(N(CH2)2(3-indolyl)) = O=C(O)CNCCc1c[nH]c2ccccc12; Nspe = C[C@H](NCC(=O)O)c1ccccc1; Nphe = O=C(O)CNCc1ccccc1; Nlys = NCCCCNCC(=O)O

Columns and labels:
[1] = Hemolytic activity in male Sprague-Dawley rat erythrocytes at 25 uM incubated for 1 hr by absorbance based method relative to control; format: toxicity, cell-based, Erythrocyte; conditions: read-out: Activity
[2] = Selectivity index, ratio of HC10 for hemolytic activity in male Sprague-Dawley rat erythrocytes to MIC for antibacterial activity against Escherichia coli ATCC 25922; format: toxicity; conditions: read-out: Selectivity Index
Escherichia coli = experiment: Antibacterial activity against Escherichia coli ATCC 25922 assessed as inhibition of bacterial growth incubated for 24 hrs by broth dilution method; format: functional
[3] = Hemolytic activity in male Sprague-Dawley rat erythrocytes at 50 uM incubated for 1 hr by absorbance based method relative to control; format: toxicity, cell-based, Erythrocyte; conditions: read-out: Activity
Staphylococcus aureus = experiment: Antibacterial activity against Staphylococcus aureus ATCC 25923 assessed as inhibition of bacterial growth incubated for 24 hrs by broth dilution method; format: functional
[4] = Hemolytic activity in male Sprague-Dawley rat erythrocytes at 100 uM incubated for 1 hr by absorbance based method relative to control; format: toxicity, cell-based, Erythrocyte; conditions: read-out: Activity
[5] = Hemolytic activity in male Sprague-Dawley rat erythrocytes assessed as concentration required for 50% hemolysis incubated for 1 hr by absorbance based method; format: toxicity, cell-based, Erythrocyte
Erythrocyte = experiment: Hemolytic activity in male Sprague-Dawley rat erythrocytes assessed as concentration required for 10% hemolysis incubated for 1 hr by absorbance based method; format: toxicity, cell-based

MIC (Escherichia coli) [µM]	MIC (Staphylococcus aureus) [µM]	Compound	hemolysis at 1 h, 25 µM [1] [%]	selectivity ratio [2]	hemolysis at 1 h, 50 µM [3] [%]	hemolysis at 1 h, 100 µM [4] [%]	HC50 at 1 h [5] [µM]	HC10 (Erythrocyte) [µM]
12.5 (≈ 25.2 µg/mL)	25 (≈ 50.4 µg/mL)	C[C@@H](c1ccccc1)N(CC(=O)N(CCCCN)CC(=O)N(CC(=O)N(CC(=O)N(CCCCN)CC(=O)N(CC(=O)N(CC(N)=O)Cc1ccccc1)Cc1ccccc1)[C@@H](C)c1ccccc1)[C@@H](C)c1ccccc1)C(=O)CN(C(=O)CN(CCCCN)C(=O)CN(Cc1ccccc1)C(=O)CN(Cc1ccccc1)C(=O)CN(CCCCN)C(=O)[C@H](Cc1c[nH]cn1)NC(=O)CNC(=O)CN)[C@@H](C)c1ccccc1 (H-GGH[Nlys][Nphe][Nphe][Nlys][Nspe][Nspe][Nlys][Nspe][Nspe][Nlys][Nphe][Nphe]-NH2)	3.01	4.5	8.68	18.4	> 100	56.5
25 (≈ 52.9 µg/mL)	6.3 (≈ 13.3 µg/mL)	C[C@@H](c1ccccc1)N(CC(N)=O)C(=O)CN(CCCCN)C(=O)CN(CCCCN)C(=O)CN(C(=O)CN(C(=O)CN(CCCCN)C(=O)CN(C(=O)CN(C(=O)CN(CCCCN)C(=O)CN(CCc1c[nH]c2ccccc12)C(=O)CN(CCc1c[nH]c2ccccc12)C(=O)CN(CCCCN)C(=O)[C@H](Cc1c[nH]cn1)NC(=O)CNC(=O)CN)[C@@H](C)c1ccccc1)[C@@H](C)c1ccccc1)[C@@H](C)c1ccccc1)[C@@H](C)c1ccccc1 (H-GGH[Nlys][Gly(N(CH2)2(3-indolyl))][Gly(N(CH2)2(3-indolyl))][Nlys][Nspe][Nspe][Nlys][Nspe][Nspe][Nlys][Nlys][Nspe]-NH2)	4.98	> 4	5.9	6.4	> 100	> 100
3.1 (≈ 5.88 µg/mL)	< 0.8	C[C@@H](c1ccccc1)N(CC(N)=O)C(=O)CN(C(=O)CN(CCCCN)C(=O)CN(C(=O)CN(C(=O)CN(CCCCN)C(=O)CN(C(=O)CN(C(=O)CN(CCCCN)C(=O)CN(CCc1c[nH]c2ccccc12)C(=O)CN(CCc1c[nH]c2ccccc12)C(=O)CNCCCCN)[C@@H](C)c1ccccc1)[C@@H](C)c1ccccc1)[C@@H](C)c1ccccc1)[C@@H](C)c1ccccc1)[C@@H](C)c1ccccc1	33	2.5	55.3	73.9	63.6	7.9
6.3 (≈ 12 µg/mL)	1.6 (≈ 3.04 µg/mL)	C[C@@H](c1ccccc1)N(CC(=O)N(CCCCN)CC(=O)N(CC(=O)N(CC(=O)N(CCCCN)CC(=O)N(CC(=O)N(CC(=O)N(CCCCN)CC(=O)N(CCc1c[nH]c2ccccc12)CC(=O)N(CCc1c[nH]c2ccccc12)CC(N)=O)[C@@H](C)c1ccccc1)[C@@H](C)c1ccccc1)[C@@H](C)c1ccccc1)[C@@H](C)c1ccccc1)C(=O)CN(C(=O)CNCCCCN)[C@@H](C)c1ccccc1 (H-[Nlys][Nspe][Nspe][Nlys][Nspe][Nspe][Nlys][Nspe][Nspe][Nlys][Gly(N(CH2)2(3-indolyl))][Gly(N(CH2)2(3-indolyl))]-NH2)	29.9	1.2	50.7	69.4	63.8	7.7
> 25	6.3 (≈ 13.5 µg/mL)	C[C@@H](c1ccccc1)N(CC(=O)NC[C@H](N)C(=O)NCC(=O)N[C@@H](Cc1c[nH]cn1)C(N)=O)C(=O)CN(CCCCN)C(=O)CN(CCCCN)C(=O)CN(C(=O)CN(C(=O)CN(CCCCN)C(=O)CN(C(=O)CN(C(=O)CN(CCCCN)C(=O)CN(CCc1c[nH]c2ccccc12)C(=O)CN(CCc1c[nH]c2ccccc12)C(=O)CNCCCCN)[C@@H](C)c1ccccc1)[C@@H](C)c1ccccc1)[C@@H](C)c1ccccc1)[C@@H](C)c1ccccc1 (H-[Nlys][Gly(N(CH2)2(3-indolyl))][Gly(N(CH2)2(3-indolyl))][Nlys][Nspe][Nspe][Nlys][Nspe][Nspe][Nlys][Nlys][Nspe]-X1)	4.93	–	6.1	5.26	> 100	> 100
25 (≈ 49.3 µg/mL)	> 25	C[C@@H](c1ccccc1)N(CC(=O)N(CCCCN)CC(=O)N(CC(=O)N(CC(=O)N(CCCCN)CC(=O)N(CC(=O)N(CC(=O)N(CCCCN)CC(=O)N(CC(=O)N(CC(N)=O)Cc1ccccc1)Cc1ccccc1)Cc1ccccc1)Cc1ccccc1)Cc1ccccc1)Cc1ccccc1)C(=O)CN(Cc1ccccc1)C(=O)CN(CCCCN)C(=O)[C@H](Cc1c[nH]cn1)NC(=O)CNC(=O)CN (H-GGH[Nlys][Nphe][Nspe][Nlys][Nphe][Nphe][Nlys][Nphe][Nphe][Nlys][Nphe][Nphe]-NH2)	-0.71	–	-0.22	0.92	> 100	> 100
> 25	6.3 (≈ 13.5 µg/mL)	C[C@@H](c1ccccc1)N(CC(=O)N(CCCCN)CC(=O)N(CCc1c[nH]c2ccccc12)CC(=O)N(CCc1c[nH]c2ccccc12)CC(=O)NC[C@H](N)C(=O)NCC(=O)N[C@@H](Cc1c[nH]cn1)C(N)=O)C(=O)CN(CCCCN)C(=O)CN(CCCCN)C(=O)CN(C(=O)CN(C(=O)CN(CCCCN)C(=O)CN(C(=O)CN(C(=O)CNCCCCN)[C@@H](C)c1ccccc1)[C@@H](C)c1ccccc1)[C@@H](C)c1ccccc1)[C@@H](C)c1ccccc1 (H-[Nlys][Nspe][Nspe][Nlys][Nspe][Nspe][Nlys][Nlys][Nspe][Nlys][Gly(N(CH2)2(3-indolyl))][Gly(N(CH2)2(3-indolyl))]-X1)	3.83	–	4.23	3.38	> 100	> 100
> 25	25 (≈ 51.1 µg/mL)	C[C@@H](c1ccccc1)N(CC(=O)N(CCCCN)CC(=O)N(CC(=O)N(CC(=O)N(CCCCN)CC(=O)N(CC(=O)N(CC(=O)NC[C@H](N)C(=O)NCC(=O)N[C@@H](Cc1c[nH]cn1)C(N)=O)Cc1ccccc1)Cc1ccccc1)[C@@H](C)c1ccccc1)[C@@H](C)c1ccccc1)C(=O)CN(C(=O)CN(CCCCN)C(=O)CN(Cc1ccccc1)C(=O)CN(Cc1ccccc1)C(=O)CNCCCCN)[C@@H](C)c1ccccc1 (H-[Nlys][Nphe][Nphe][Nlys][Nspe][Nspe][Nlys][Nspe][Nspe][Nlys][Nphe][Nphe]-X1)	0.66	–	2.32	7.73	> 100	> 100
25 (≈ 50.7 µg/mL)	> 25	C[C@@H](c1ccccc1)N(CC(=O)N(CC(=O)N(CCCCN)CC(=O)N(CC(=O)N(CC(=O)N(CCCCN)CC(=O)N(CC(=O)N(CC(=O)N(CCCCN)CC(=O)N(CC(=O)N(CC(N)=O)Cc1ccccc1)Cc1ccccc1)Cc1ccccc1)Cc1ccccc1)Cc1ccccc1)Cc1ccccc1)Cc1ccccc1)C(=O)CN(CCCCN)C(=O)CNC(=O)[C@H](Cc1c[nH]cn1)NC(=O)CNC(=O)CN (H-GGHG[Nlys][Nspe][Nphe][Nlys][Nphe][Nphe][Nlys][Nphe][Nphe][Nlys][Nphe][Nphe]-NH2)	-0.43	–	0.18	1.36	> 100	> 100
